# In US11358952B2, “Substituted 4-aminoisoindoline-1,3-dione compounds, compositions thereof, and methods of treatment therewith” (Celgene Corporation, priority 2018, dated 2022):
# System: SU-DHL-4 cell line
# Assay: SU-DHL-4 cell proliferation assay (Cell Titer-Glo viability)
# Assay type: cell-based
# Settings: Homo sapiens; cell viability IC50 activity level, DLBCL cell line SU-DHL-4, 120 hours post-treatment; read-out: SU-DHL-4 Act
# Procedure, shortened: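 SU-DHL-4 cells (500/well, RPMI-1640 + 10% FBS) exposed to 20-point compound dilutions (0.5 nM–10 μM, 0.1% DMSO) for 120 h at 37°C, 5% CO2. Viability measured by Cell Titer-Glo luminescence at t0 and at 120 h. IC50 is the concentration giving 50% of DMSO control, from a four-parameter logistic fit.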
row,Structure (SMILES),IC50 [nM]
1,"NC(=O)c1ccc(N2CCN(Cc3ccc(CNc4cccc5c4C(=O)N([C@H]4CCC(=O)NC4=O)C5=O)cc3)CC2)nc1 [Cpd 203, (S)-6-(4-(4-((2-(2,6-dioxopiperidin-3-yl)-1,3-dioxoisoindolin-4-ylamino)methyl)benzyl)piperazin-1-yl)nicotinamide]",< 200
2,"O=C1CCC(N2C(=O)c3cccc(NCc4ccc(CN5CC(N6CC7CCC(C6)O7)C5)cc4)c3C2=O)C(=O)N1 (stereo not drawn) [Cpd 224, 4-(4-((3-(8-oxa-3-azabicyclo[3.2.1]octan-3-yl)azetidin-1-yl)methyl)benzylamino)-2-(2,6-dioxopiperidin-3-yl)isoindoline-1,3-dione]",< 200
3,"Cc1cc(CNc2cccc3c2C(=O)N(C2CCC(=O)NC2=O)C3=O)ccc1CN1CCC2(CCOCC2)CC1 (stereo not drawn) [Cpd 236, 4-(4-(3-oxa-9-azaspiro[5.5]undecan-9-ylmethyl)-3-methylbenzylamino)-2-(2,6-dioxopiperidin-3-yl)isoindoline-1,3-dione]",< 200
4,"O=C1CCC(N2C(=O)c3cccc(NCc4ccc(CN5CC(c6ccc(F)cc6)C5)cc4)c3C2=O)C(=O)N1 (stereo not drawn) [Cpd 14, 2-(2,6-dioxopiperidin-3-yl)-4-(4-((3-(4-fluorophenyl)azetidin-1-yl)methyl)benzylamino)isoindoline-1,3-dione]",200 to 500
5,"O=C1CCC(N2C(=O)c3cccc(NCc4ccc(CN5CCN(CC6CC6)CC5)cc4F)c3C2=O)C(=O)N1 (stereo not drawn) [Cpd 118, 4-(4-((4-(cyclopropylmethyl)piperazin-1-yl)methyl)-2-fluorobenzylamino)-2-(2,6-dioxopiperidin-3-yl)isoindoline-1,3-dione]",< 200
6,"Cc1cc(CNc2cccc3c2C(=O)N(C2CCC(=O)NC2=O)C3=O)ccc1CN1CCC(C(C)C)CC1 (stereo not drawn) [Cpd 40, 2-(2,6-dioxopiperidin-3-yl)-4-(4-((4-isopropylpiperidin-1-yl)methyl)-3-methylbenzylamino)isoindoline-1,3-dione]",< 200
7,"Cc1cc(CNc2cccc3c2C(=O)N(C2CCC(=O)NC2=O)C3=O)ccc1CN1CC2(CCCCC2)C1 (stereo not drawn) [Cpd 75, 4-(4-(2-azaspiro[3.5]nonan-2-ylmethyl)-3-methylbenzylamino)-2-(2,6-dioxopiperidin-3-yl)isoindoline-1,3-dione]",< 200
8,"NC(=O)c1ccc(N2CCN(Cc3ccc(CNc4cccc5c4C(=O)N(C4CCC(=O)NC4=O)C5=O)c(F)c3)CC2)cn1 (stereo not drawn) [Cpd 110, 5-(4-(4-((2-(2,6-dioxopiperidin-3-yl)-1,3-dioxoisoindolin-4-ylamino)methyl)-3-fluorobenzyl)piperazin-1-yl)picolinamide]",< 200
9,"CCOC1(C)CCN(Cc2ccc(CNc3cccc4c3C(=O)N(C3CCC(=O)NC3=O)C4=O)cc2)CC1 (stereo not drawn) [Cpd 89, 2-(2,6-dioxopiperidin-3-yl)-4-(4-((4-ethoxy-4-methylpiperidin-1-yl)methyl)benzylamino)isoindoline-1,3-dione]",< 200
10,"O=C1CCC(N2C(=O)c3cccc(NCc4ccc(CN5CCN(c6noc7ccccc67)CC5)cc4F)c3C2=O)C(=O)N1 (stereo not drawn) [Cpd 176, 4-(4-((4-(benzo[d]isoxazol-3-yl)piperazin-1-yl)methyl)-2-fluorobenzylamino)-2-(2,6-dioxopiperidin-3-yl)isoindoline-1,3-dione]",< 200
11,"O=C1CCC(N2C(=O)c3cccc(NCc4ccc(CN5CC6CC(c7ccc(F)cc7)CC6C5)cc4)c3C2=O)C(=O)N1 [Cpd 64, 2-(2,6-dioxopiperidin-3-yl)-4-(4-(((3aR,5r,6aS)-5-(4-fluorophenyl)hexahydrocyclopenta [c]pyrrol-2-(1H)-yl)methyl)benzylamino)isoindoline-1,3-dione]",200 to 500
12,"O=C1CCC(N2C(=O)c3cccc(NCc4ccc(CN5CCN(c6nnc(C(F)(F)F)s6)CC5)cc4F)c3C2=O)C(=O)N1 (stereo not drawn) [Cpd 177, 2-(2,6-dioxopiperidin-3-yl)-4-(2-fluoro-4-((4-(5-(trifluoromethyl)-1,3,4-thiadiazol-2-yl)piperazin-1-yl)methyl)benzylamino)isoindoline-1,3-dione]",< 200
